Results as given in paper PMC11278161 (Marine Drugs, 2024).

Test system: A549 cells
Experiment: cells
Details: Homo sapiens, A549, 72 h, read-out: IC50, cytotoxicity for A549

CC[C@@]1(O)C(=O)OCc2c1cc1n(c2=O)Cc2cc3ccccc3nc2-1 [CPT, Camptothecin]
IC50: 260 nM
